Measured values as given in PubChem BioAssay AID2060892 (Molecular Pharmacology Branch, DTP, NCI, 2025).

Test system: HOP-62 complex spheroids with HUVEC/MSC, viability
Experiment: Anticancer human tumor HOP-62 cell line growth inhibition [RAS];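 also: spheroids exposed to agents for seven days before readout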;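 as to viability, T/C: 100% = DMSO vehicle control viability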
Conditions: for IC50: curve of first compound; for viability, T/C: stronger effect = lower value
Method in brief: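 Agents were tested in combination matrices in half-log decrements from a top concentration at or near clinical Cmax (10 microM if undetermined). Targets were multi-cell spheroids of tumour lines plus HUVEC and MSC stromal cells.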

Structure (SMILES): CCc1c2c(nc3ccc(O)cc13)-c1cc3c(c(=O)n1C2)COC(=O)[C@]3(O)CC + C#Cc1c(F)ccc2cc(O)cc(-c3ncc4c(N5CC6CCC(C5)N6)nc(OCC56CCCN5CC(F)C6)nc4c3F)c12
- IC50 (second compound 0.0316 µM): 1.14 nM
- IC50 (second compound 0.1 µM): 1.31 nM
- IC50 (second compound 0.316 µM): 1.19 nM
- IC50 (second compound 1 µM): 1.23 nM
- IC50 (second compound 3.16 µM): 0.972 nM
- IC50 (second compound 10 µM): < 0.949 nM
- viability, T/C (second compound 0.0316 µM, first compound 0.000949 µM): 56.3%
- viability, T/C (second compound 0.0316 µM, first compound 0.003 µM): 16.6%
- viability, T/C (second compound 0.0316 µM, first compound 0.00949 µM): 11.4%
- viability, T/C (second compound 0.0316 µM, first compound 0.03 µM): 5.6%
- viability, T/C (second compound 0.0316 µM, first compound 0.0949 µM): 3.66%
- viability, T/C (second compound 0.0316 µM, first compound 0.3 µM): 2.78%
- viability, T/C (second compound 0.1 µM, first compound 0.000949 µM): 62.9%
- viability, T/C (second compound 0.1 µM, first compound 0.003 µM): 15.6%
- viability, T/C (second compound 0.1 µM, first compound 0.00949 µM): 10.1%
- viability, T/C (second compound 0.1 µM, first compound 0.03 µM): 4.19%
- viability, T/C (second compound 0.1 µM, first compound 0.0949 µM): 5.31%
- viability, T/C (second compound 0.1 µM, first compound 0.3 µM): 3.12%
- viability, T/C (second compound 0.316 µM, first compound 0.000949 µM): 59.1%
- viability, T/C (second compound 0.316 µM, first compound 0.003 µM): 13.8%
- viability, T/C (second compound 0.316 µM, first compound 0.00949 µM): 8.76%
- viability, T/C (second compound 0.316 µM, first compound 0.03 µM): 5.75%
- viability, T/C (second compound 0.316 µM, first compound 0.0949 µM): 3.69%
- viability, T/C (second compound 0.316 µM, first compound 0.3 µM): 3.17%
- viability, T/C (second compound 1 µM, first compound 0.000949 µM): 60.8%
- viability, T/C (second compound 1 µM, first compound 0.003 µM): 12.7%
- viability, T/C (second compound 1 µM, first compound 0.00949 µM): 7.48%
- viability, T/C (second compound 1 µM, first compound 0.03 µM): 3.47%
- viability, T/C (second compound 1 µM, first compound 0.0949 µM): 3.07%
- viability, T/C (second compound 1 µM, first compound 0.3 µM): 2.06%
- viability, T/C (second compound 3.16 µM, first compound 0.000949 µM): 51.1%
- viability, T/C (second compound 3.16 µM, first compound 0.003 µM): 10.9%
- viability, T/C (second compound 3.16 µM, first compound 0.00949 µM): 6.45%
- viability, T/C (second compound 3.16 µM, first compound 0.03 µM): 3.95%
- viability, T/C (second compound 3.16 µM, first compound 0.0949 µM): 2.84%
- viability, T/C (second compound 3.16 µM, first compound 0.3 µM): 2.67%
- viability, T/C (second compound 10 µM, first compound 0.000949 µM): 26.9%
- viability, T/C (second compound 10 µM, first compound 0.003 µM): 11.7%
- viability, T/C (second compound 10 µM, first compound 0.00949 µM): 8.96%
- viability, T/C (second compound 10 µM, first compound 0.03 µM): 4.94%
- viability, T/C (second compound 10 µM, first compound 0.0949 µM): 5.28%
- viability, T/C (second compound 10 µM, first compound 0.3 µM): 3.97%

Structure (SMILES): NC1c2ccccc2OC12CCN(c1cnc3c(N4CCCc5ncccc54)n[nH]c3n1)CC2 (stereo unspecified) + CCn1c(-c2cc(N3CCN(C)CC3)cnc2C(C)OC)c2c3cc(ccc31)-c1csc(n1)CC(NC(=O)C1CC1C)C(=O)N1CCCC(N1)C(=O)OCC(C)(C)C2
- IC50 (second compound 0.000949 µM): 180 nM
- IC50 (second compound 0.003 µM): 72 nM
- IC50 (second compound 0.00949 µM): < 31.6 nM
- IC50 (second compound 0.03 µM): < 31.6 nM
- IC50 (second compound 0.0949 µM): < 31.6 nM
- IC50 (second compound 0.3 µM): < 31.6 nM
- viability, T/C (second compound 0.000949 µM, first compound 0.0316 µM): 87.9%
- viability, T/C (second compound 0.000949 µM, first compound 0.1 µM): 65.9%
- viability, T/C (second compound 0.000949 µM, first compound 0.316 µM): 33.9%
- viability, T/C (second compound 0.000949 µM, first compound 1 µM): 28.5%
- viability, T/C (second compound 0.000949 µM, first compound 3.16 µM): 28.1%
- viability, T/C (second compound 0.000949 µM, first compound 10 µM): 17.6%
- viability, T/C (second compound 0.003 µM, first compound 0.0316 µM): 72.5%
- viability, T/C (second compound 0.003 µM, first compound 0.1 µM): 40.5%
- viability, T/C (second compound 0.003 µM, first compound 0.316 µM): 25.3%
- viability, T/C (second compound 0.003 µM, first compound 1 µM): 25%
- viability, T/C (second compound 0.003 µM, first compound 3.16 µM): 17.7%
- viability, T/C (second compound 0.003 µM, first compound 10 µM): 14%
- viability, T/C (second compound 0.00949 µM, first compound 0.0316 µM): 47.4%
- viability, T/C (second compound 0.00949 µM, first compound 0.1 µM): 29.3%
- viability, T/C (second compound 0.00949 µM, first compound 0.316 µM): 25%
- viability, T/C (second compound 0.00949 µM, first compound 1 µM): 17.9%
- viability, T/C (second compound 0.00949 µM, first compound 3.16 µM): 16.5%
- viability, T/C (second compound 0.00949 µM, first compound 10 µM): 13.3%
- viability, T/C (second compound 0.03 µM, first compound 0.0316 µM): 42.9%
- viability, T/C (second compound 0.03 µM, first compound 0.1 µM): 28.7%
- viability, T/C (second compound 0.03 µM, first compound 0.316 µM): 22.4%
- viability, T/C (second compound 0.03 µM, first compound 1 µM): 16.7%
- viability, T/C (second compound 0.03 µM, first compound 3.16 µM): 11.3%
- viability, T/C (second compound 0.03 µM, first compound 10 µM): 13.6%
- viability, T/C (second compound 0.0949 µM, first compound 0.0316 µM): 30.5%
- viability, T/C (second compound 0.0949 µM, first compound 0.1 µM): 24.8%
- viability, T/C (second compound 0.0949 µM, first compound 0.316 µM): 18.6%
- viability, T/C (second compound 0.0949 µM, first compound 1 µM): 17.5%
- viability, T/C (second compound 0.0949 µM, first compound 3.16 µM): 11.2%
- viability, T/C (second compound 0.0949 µM, first compound 10 µM): 12.8%
- viability, T/C (second compound 0.3 µM, first compound 0.0316 µM): 31.9%
- viability, T/C (second compound 0.3 µM, first compound 0.1 µM): 23.6%
- viability, T/C (second compound 0.3 µM, first compound 0.316 µM): 18.4%
- viability, T/C (second compound 0.3 µM, first compound 1 µM): 15.6%
- viability, T/C (second compound 0.3 µM, first compound 3.16 µM): 12.5%
- viability, T/C (second compound 0.3 µM, first compound 10 µM): 14.3%

Structure (SMILES): C=CC(=O)Nc1cc(Nc2nccc(-c3cn(C)c4ccccc34)n2)c(OC)cc1N(C)CCN(C)C + C#Cc1c(F)ccc2cc(O)cc(-c3ncc4c(N5CC6CCC(C5)N6)nc(OCC56CCCN5CC(F)C6)nc4c3F)c12
- IC50 (second compound 0.0316 µM): > 1000 nM
- IC50 (second compound 0.1 µM): > 1000 nM
- IC50 (second compound 0.316 µM): > 1000 nM
- IC50 (second compound 1 µM): > 1000 nM
- IC50 (second compound 3.16 µM): 535 nM
- IC50 (second compound 10 µM): < 3.16 nM
- viability, T/C (second compound 0.0316 µM, first compound 0.00316 µM): 109%
- viability, T/C (second compound 0.0316 µM, first compound 0.01 µM): 105%
- viability, T/C (second compound 0.0316 µM, first compound 0.0316 µM): 106%
- viability, T/C (second compound 0.0316 µM, first compound 0.1 µM): 109%
- viability, T/C (second compound 0.0316 µM, first compound 0.316 µM): 108%
- viability, T/C (second compound 0.0316 µM, first compound 1 µM): 93%
- viability, T/C (second compound 0.1 µM, first compound 0.00316 µM): 108%
- viability, T/C (second compound 0.1 µM, first compound 0.01 µM): 114%
- viability, T/C (second compound 0.1 µM, first compound 0.0316 µM): 106%
- viability, T/C (second compound 0.1 µM, first compound 0.1 µM): 100%
- viability, T/C (second compound 0.1 µM, first compound 0.316 µM): 101%
- viability, T/C (second compound 0.1 µM, first compound 1 µM): 90.4%
- viability, T/C (second compound 0.316 µM, first compound 0.00316 µM): 109%
- viability, T/C (second compound 0.316 µM, first compound 0.01 µM): 102%
- viability, T/C (second compound 0.316 µM, first compound 0.0316 µM): 100%
- viability, T/C (second compound 0.316 µM, first compound 0.1 µM): 112%
- viability, T/C (second compound 0.316 µM, first compound 0.316 µM): 98%
- viability, T/C (second compound 0.316 µM, first compound 1 µM): 83.6%
- viability, T/C (second compound 1 µM, first compound 0.00316 µM): 104%
- viability, T/C (second compound 1 µM, first compound 0.01 µM): 105%
- viability, T/C (second compound 1 µM, first compound 0.0316 µM): 98.5%
- viability, T/C (second compound 1 µM, first compound 0.1 µM): 93.2%
- viability, T/C (second compound 1 µM, first compound 0.316 µM): 86.9%
- viability, T/C (second compound 1 µM, first compound 1 µM): 75.1%
- viability, T/C (second compound 3.16 µM, first compound 0.00316 µM): 74.8%
- viability, T/C (second compound 3.16 µM, first compound 0.01 µM): 74.3%
- viability, T/C (second compound 3.16 µM, first compound 0.0316 µM): 81%
- viability, T/C (second compound 3.16 µM, first compound 0.1 µM): 81.8%
- viability, T/C (second compound 3.16 µM, first compound 0.316 µM): 59.2%
- viability, T/C (second compound 3.16 µM, first compound 1 µM): 38.9%
- viability, T/C (second compound 10 µM, first compound 0.00316 µM): 47.2%
- viability, T/C (second compound 10 µM, first compound 0.01 µM): 45.9%
- viability, T/C (second compound 10 µM, first compound 0.0316 µM): 53%
- viability, T/C (second compound 10 µM, first compound 0.1 µM): 40.4%
- viability, T/C (second compound 10 µM, first compound 0.316 µM): 35.4%
- viability, T/C (second compound 10 µM, first compound 1 µM): 29.5%
